Data published in ChEMBL document CHEMBL1157711, “Recent advances in the discovery of competitive protein tyrosine phosphatase 1B inhibitors for the treatment of diabetes, obesity, and cancer” (J Med Chem, 2010).
Each block holds one compound with its values, some of them ahead of it.

Tests used:
[1] = target: T1, Tyrosine-protein phosphatase non-receptor type 2 (Homo sapiens, UniProt P17706); assay: Inhibition of TCPTP
T1 sequence (P17706 whole entry): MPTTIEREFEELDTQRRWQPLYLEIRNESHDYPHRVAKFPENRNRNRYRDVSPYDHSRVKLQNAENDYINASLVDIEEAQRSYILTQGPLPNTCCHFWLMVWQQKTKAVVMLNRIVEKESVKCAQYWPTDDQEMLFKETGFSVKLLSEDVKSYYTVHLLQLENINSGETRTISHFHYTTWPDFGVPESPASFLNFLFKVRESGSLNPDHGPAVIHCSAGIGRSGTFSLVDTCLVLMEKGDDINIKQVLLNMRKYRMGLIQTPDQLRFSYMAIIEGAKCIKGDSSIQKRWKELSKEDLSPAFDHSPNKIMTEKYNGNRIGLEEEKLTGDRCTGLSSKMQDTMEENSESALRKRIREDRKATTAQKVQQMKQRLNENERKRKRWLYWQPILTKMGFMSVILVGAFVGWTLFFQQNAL

[2] = Selectivity ratio of IC50 for TCPTP to IC50 for PTP1B
[3] = target: T2, Tyrosine-protein phosphatase non-receptor type 1 (Homo sapiens, UniProt P18031); assay: Inhibition of PTP1B by competitive inhibition assay
T2 sequence (P18031 whole entry): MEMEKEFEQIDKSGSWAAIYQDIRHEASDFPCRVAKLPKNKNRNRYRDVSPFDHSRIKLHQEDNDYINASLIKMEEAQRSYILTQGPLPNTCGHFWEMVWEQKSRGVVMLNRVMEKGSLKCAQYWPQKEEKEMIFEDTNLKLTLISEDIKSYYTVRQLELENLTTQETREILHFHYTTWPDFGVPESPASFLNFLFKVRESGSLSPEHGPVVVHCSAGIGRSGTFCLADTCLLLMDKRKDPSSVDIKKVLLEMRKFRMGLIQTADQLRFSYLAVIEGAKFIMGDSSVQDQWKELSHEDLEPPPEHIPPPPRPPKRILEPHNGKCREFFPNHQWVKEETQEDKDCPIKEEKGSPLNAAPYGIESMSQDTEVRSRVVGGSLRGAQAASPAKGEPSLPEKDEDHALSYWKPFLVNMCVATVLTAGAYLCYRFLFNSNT

[4] = target: T2, Tyrosine-protein phosphatase non-receptor type 1; assay: Inhibition of PTP1B
[5] = target: Receptor-type tyrosine-protein phosphatase beta (Homo sapiens, UniProt P23467); assay: Inhibition of human protein-tyrosine phosphatase beta
Sequence of Receptor-type tyrosine-protein phosphatase beta (P23467 whole entry): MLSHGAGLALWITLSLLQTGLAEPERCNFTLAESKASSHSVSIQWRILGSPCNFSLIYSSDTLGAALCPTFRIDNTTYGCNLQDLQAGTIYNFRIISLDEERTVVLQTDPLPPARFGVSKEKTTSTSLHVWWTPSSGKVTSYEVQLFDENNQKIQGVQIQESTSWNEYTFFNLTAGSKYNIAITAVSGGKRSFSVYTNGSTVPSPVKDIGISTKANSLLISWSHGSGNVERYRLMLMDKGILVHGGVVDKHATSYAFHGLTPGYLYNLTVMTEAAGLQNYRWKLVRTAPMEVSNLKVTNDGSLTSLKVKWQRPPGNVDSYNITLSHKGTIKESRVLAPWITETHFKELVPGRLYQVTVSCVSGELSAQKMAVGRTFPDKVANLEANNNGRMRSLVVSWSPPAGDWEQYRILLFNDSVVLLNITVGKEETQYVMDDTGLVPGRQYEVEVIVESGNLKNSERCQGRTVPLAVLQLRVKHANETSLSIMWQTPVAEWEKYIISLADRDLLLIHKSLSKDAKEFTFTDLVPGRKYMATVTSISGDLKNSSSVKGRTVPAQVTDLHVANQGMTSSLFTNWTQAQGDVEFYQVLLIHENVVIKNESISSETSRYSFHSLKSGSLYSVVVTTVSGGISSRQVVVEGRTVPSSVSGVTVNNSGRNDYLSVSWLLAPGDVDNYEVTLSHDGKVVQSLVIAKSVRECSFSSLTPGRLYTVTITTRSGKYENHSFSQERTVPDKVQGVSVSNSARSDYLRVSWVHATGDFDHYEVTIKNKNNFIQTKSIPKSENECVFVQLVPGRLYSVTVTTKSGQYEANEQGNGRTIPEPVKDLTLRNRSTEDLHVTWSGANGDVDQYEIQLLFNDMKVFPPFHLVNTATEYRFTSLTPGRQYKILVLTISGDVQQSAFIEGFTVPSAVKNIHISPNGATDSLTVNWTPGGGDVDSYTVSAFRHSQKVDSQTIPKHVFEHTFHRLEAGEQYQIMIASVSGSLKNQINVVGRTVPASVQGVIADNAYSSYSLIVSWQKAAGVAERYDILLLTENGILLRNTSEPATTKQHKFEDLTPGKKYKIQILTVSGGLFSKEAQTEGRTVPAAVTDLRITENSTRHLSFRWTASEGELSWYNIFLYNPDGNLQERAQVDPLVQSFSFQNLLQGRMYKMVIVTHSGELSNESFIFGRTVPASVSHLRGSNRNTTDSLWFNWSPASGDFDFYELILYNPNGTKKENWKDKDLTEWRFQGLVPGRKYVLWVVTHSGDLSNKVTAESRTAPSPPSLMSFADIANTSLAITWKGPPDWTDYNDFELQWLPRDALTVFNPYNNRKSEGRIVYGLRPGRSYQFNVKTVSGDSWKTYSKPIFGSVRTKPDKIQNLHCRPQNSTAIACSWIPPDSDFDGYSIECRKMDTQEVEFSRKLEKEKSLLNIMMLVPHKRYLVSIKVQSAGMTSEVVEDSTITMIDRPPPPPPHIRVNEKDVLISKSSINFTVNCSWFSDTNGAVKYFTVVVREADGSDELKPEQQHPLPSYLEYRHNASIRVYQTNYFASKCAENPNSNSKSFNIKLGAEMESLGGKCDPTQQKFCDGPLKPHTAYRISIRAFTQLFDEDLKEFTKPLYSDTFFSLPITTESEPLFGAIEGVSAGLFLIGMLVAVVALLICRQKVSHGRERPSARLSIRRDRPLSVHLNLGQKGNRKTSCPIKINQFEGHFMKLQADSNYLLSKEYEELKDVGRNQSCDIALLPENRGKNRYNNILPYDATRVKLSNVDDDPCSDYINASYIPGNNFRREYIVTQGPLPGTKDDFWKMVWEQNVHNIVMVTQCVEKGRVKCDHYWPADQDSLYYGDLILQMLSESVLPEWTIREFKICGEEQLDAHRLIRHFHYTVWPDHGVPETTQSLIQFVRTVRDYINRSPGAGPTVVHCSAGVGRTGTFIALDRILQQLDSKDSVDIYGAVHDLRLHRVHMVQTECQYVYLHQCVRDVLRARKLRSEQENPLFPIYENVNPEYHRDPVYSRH

[6] = Permeability across human Caco-2 cell membrane; format: ADME, cell-based; settings: read-out: permeability
[7] = Selectivity ratio of Ki for TCPTP to Ki for PTP1B
[8] = test system: C2C12; assay: Augmentation of insulin-stimulated 2-deoxy-D-glucose uptake in mouse C2C12 cells at 100 uM; format: functional

IC50 [1]: 0.028 µM | Ratio IC50 [2]: 1
Structure (SMILES): CN(C)S(=O)(=O)c1ccc(CN(Cc2ccc(C(F)(F)P(=O)(O)O)c(Br)c2)S(=O)(=O)c2ccc(OCC(=O)O)cc2)cc1

IC50 [4]: > 20 µM
Structure (SMILES): CN(CCCCCl)P(=O)(OCc1ccc([N+](=O)[O-])o1)C(F)(F)c1ccc(CC(=O)N[C@@H](CC(=O)O)C(=O)N[C@@H](Cc2ccc(C(F)(F)P(=O)(OCc3ccc([N+](=O)[O-])o3)N(C)CCCCCl)cc2)C(=O)ON)cc1 (some centres undefined)

Ki [1]: 0.065 µM
Structure (SMILES): CCc1cc(C[C@H](NC(C)=O)C(=O)NCCCCOc2cccc(O)c2C(=O)OC)ccc1N(C(=O)C(=O)O)c1ccccc1C(=O)O

Ki [1]: 0.026 µM
Structure (SMILES): NC(=O)[C@H](Cc1ccc(C(F)(F)P(=O)(O)O)cc1)NC(=O)[C@H](CC(=O)O)NC(=O)Cc1ccc(C(F)(F)P(=O)(O)O)cc1

IC50 [5]: 0.0003 µM | IC50 [4]: 0.07 µM
Structure (SMILES): CCc1csc([C@H](Cc2ccc(NS(=O)(=O)O)cc2)NC(=O)[C@H](CC(C)C)C(=O)OC)n1

Papp [6]: > 100 nm/s | Ratio Ki [7]: 20
Structure (SMILES): COC(=O)c1c(O)cccc1OCCCCNC(=O)[C@H](Cc1ccc(OCC(=O)O)c(O)c1)NC(C)=O

IC50 [4]: 2.5 µM
Structure (SMILES): O=S(=O)(Nc1ccc(Oc2ccc(Oc3ccc(NS(=O)(=O)C(F)(F)F)cc3)cc2)cc1)C(F)(F)F

IC50 [4]: 0.6 µM
Structure (SMILES): Cc1ccccc1S(=O)(=O)N(Cc1ccc(C(=O)C(F)(F)P(=O)(O)O)cc1)Cc1ccc(C(=O)C(F)(F)P(=O)(O)O)cc1

IC50 [4]: 3.2 µM
Structure (SMILES): Cc1nc(-c2ccc(Cl)cc2)sc1CCc1cccc(C(O)(C(=O)O)C(F)(F)F)c1 (centres undefined)

Ki [1]: > 200 µM | Ratio Ki [7]: > 23 | Ki [4]: 8.4 µM
Structure (SMILES): COC(=O)c1c(O)cccc1OCCCCNC(=O)[C@H](Cc1ccc(OC(C(=O)O)C(=O)NC2CC2)cc1)NC(=O)OC(C)(C)C (some centres undefined)

IC50 [1]: 0.025 µM | Ratio IC50 [2]: 1 | IC50 [4]: 0.023 µM
Structure (SMILES): Cc1cc(CC(NS(=O)(=O)c2cccc(F)c2)C2=N[C@H](CCOc3ccccc3S(C)(=O)=O)CN2)ccc1C1CC(=O)NS1(=O)=O (some centres undefined)

IC50 [4]: 0.016 µM
Structure (SMILES): CCC(CC)c1ccc(N(Cc2cccc(-c3ccc(COc4ccc(C[C@H](NC(C)=O)C(=O)O)cc4)cc3)c2)C(C)C)cc1

IC50 [1]: 0.025 µM
Structure (SMILES): Cc1cc(C[C@H](NS(=O)(=O)c2ccccc2)c2nc3ccccc3[nH]2)ccc1[C@@H]1CC(=O)NS1(=O)=O

IC50 [4]: 8 µM
Structure (SMILES): O=S(=O)(O)C(F)(F)c1cccc(-c2ccc(-c3ccccc3)cc2)c1

The next lines start with the compound.

Structure (SMILES): Cc1cc(C[C@H](NS(=O)(=O)c2ccccc2)c2nc3ccccc3[nH]2)ccc1N1CC(=O)NS1(=O)=O
IC50 [1]: 0.15 µM

Structure (SMILES): COc1cc(/C=C2\SC(=S)N(c3cccc(Cl)c3)C2=O)cc([N+](=O)[O-])c1O
Ratio IC50 [2]: 1.3 | Ki [3]: 1.8 µM

Structure (SMILES): O=C1CN(c2c(O)cc(CC3CCCCC3)cc2F)S(=O)(=O)C1
IC50 [4]: 0.014 µM

Structure (SMILES): O=C1C[C@@H](c2ccc(C[C@H](Nc3nc4ccccc4s3)c3nc4ccccc4[nH]3)cc2F)S(=O)(=O)N1
IC50 [1]: 0.25 µM

Structure (SMILES): Cc1sc(-c2cccc(NC3CCN(S(=O)(=O)Cc4ccccc4)CC3)c2)cc1C1CC(=O)NS1(=O)=O (centres undefined)
Ki [4]: 4.3 µM

Structure (SMILES): COC(=O)c1c(O)cccc1OC/C=C/c1cccc(-c2onc(C(=O)O)c2N)c1
IC50 [1]: > 30 µM

Structure (SMILES): O=C(O)C(=O)Nc1sc2c(c1C(=O)O)CCN[C@H]2CNC(=O)c1cc2cc(F)ccc2[nH]1
Papp [6]: < 10 nm/s | Activity [8]: 70%

Structure (SMILES): CS(=O)(=O)OC1C(Cl)CCCC1Cc1ccc(N2CC(=O)CS2(=O)=O)c(O)c1 (centres undefined)
IC50 [4]: 0.0126 µM

Structure (SMILES): N#Cc1ccc2cc(Br)c(C(F)(F)P(=O)(O)O)cc2c1
IC50 [1]: 0.12 µM

Structure (SMILES): CNC(=O)[C@@H]1Cc2ccc(NS(=O)(=O)O)cc2CN1C(=O)CCc1cccc(NS(=O)(=O)O)c1
Ratio IC50 [2]: 1.9

Structure (SMILES): COc1ccc2cc(O)c(N3CC(=O)NS3(=O)=O)cc2c1
IC50 [4]: < 0.03 µM
